Reference: article PMC6085462 (Frontiers in Microbiology, 2018)
Entries after “also recorded” stand apart in the source; their conditions may differ. Where no end group is shown, it is not given here.

Legend:
pancreatin = pancreatin alone in the intestinal electrolyte solution; details: porcine, 37°C, up to 120 min
[1] = test system: elastase type IIA from porcine pancreas; experiment: elastase alone in the intestinal electrolyte solution; details: 37°C, up to 120 min
[2] = test system: Pancreatin from porcine pancreas; experiment: pancreatin alone at a final concentration of 8 mg/mL in the intestinal electrolyte solution; details: 37°C, up to 120 min
[3] = test system: elastase type IIA from porcine pancreas (EC 3.4.21.36); experiment: elastase alone at a final concentration of 8 mg/mL in the intestinal electrolyte solution; details: 37°C, up to 120 min
[4] = test system: α-chymotrypsin from bovine pancreas (EC 3.4.21.1); experiment: α-chymotrypsin alone at a final concentration of 8 mg/mL in the intestinal electrolyte solution; details: 37°C, up to 120 min
pancreatin; trypsin [5] = experiment: static duodenal model: 8% pancreatin, 4% porcine bile, 2 mg/mL trypsin in intestinal electrolyte solution, pH 6.3; details: bovine trypsin, 37°C, up to 120 min
pancreatin; trypsin [6] = experiment: Duodenal solution: 8% pancreatin, 4% porcine bile solutions and 2 mg/mL trypsin solution in intestinal electrolyte solution adjusted to pH 6.3; details: 37°C, up to 120 min
pepsin; lipase = experiment: TIM-1 gastric compartment: simulated gastric secretions containing pepsin (0.19 mg/mL) or lipase (0.25 mg/mL) in an electrolyte solution, pH 4.5 decreased gradually to 1.7; details: up to 60 min
[7] = ref Kheadr et al., 2010; cited from earlier work
Description: A bacteriocin is most often defined as a peptide of molecular mass mostly <10,000 Da that is inhibitory to species closely related to the producer species. Bacteriocins differ from antibiotics in being synthesized by translation of an mRNA transcript, having generally a narrow spectrum of activity and being effective at concentrations as low as nanomolar ([Nes, 2011]). Some bacteriocins may undergo post-translational modifications and as such belong to the family of ribosomally-synthesized and post-translationally-modified peptides (RiPPs) ([Arnison et al., 2013]) Their potential as antimicrob ...

| cleaved bond (pepsin; lipase) | Substance | cleaved bond (pancreatin) | cleaved bond [1] | cleaved bond [2] | cleaved bond [3] | cleaved bond [4] | cleaved bond (pancreatin; trypsin [5]) | cleaved bond (pancreatin; trypsin [6]) | Antibacterial activity in the small intestine under gastrointestinal conditions [7] |
| --- | --- | --- | --- | --- | --- | --- | --- | --- | --- |
| G14-T15, 60 min | GGAGHVPEYFVGIGTPISFYG | F10-V11, 0 min; also recorded: Y9-F10, 0 min; also recorded: I13-G14, 0 min | F10-V11, 0 min; also recorded: I13-G14, 0 min; also recorded: Y9-F10, 0 min | V11-G12, 0 min; also recorded: Y9-F10, major, 0 min; also recorded: F10-V11, 0 min; also recorded: I13-G14, 0 min | F10-V11, 0 min; also recorded: I13-G14, major, 0 min; also recorded: Y9-F10, 0 min; also recorded: V11-G12, 0 min | Y9-F10, major, 0 min; also recorded: F10-V11, 0 min | I13-G14, 60 min; also recorded: F10-V11, 60 min; also recorded: Y9-F10, 60 min; also recorded: Y9-F10, 120 min; also recorded: V11-G12, 120 min | Y9-F10, first_seen, 0 min; also recorded: F10-V11, first_seen, 0 min; also recorded: I13-G14, first_seen, 0 min; also recorded: G12-I13, 60 min; also recorded: V11-G12, 60 min | – |
| – | pediocin PA-1 (KYYGNGVTCGKHSCSVDWGKATTCIINNGAMAWATGGHQGNHKC; ends and bridges not checked; cysteine pairing not given here; UniProt P29430 19-62, looked up) [class IIa bacteriocin] | – | – | – | – | – | – | – | losing completely its antibacterial activity |
